Test results as given in patent publication US20100137398A1, “USE OF HDAC INHIBITORS FOR THE TREATMENT OF GASTROINTESTINAL CANCERS” (NOVARTIS AG, priority 2007, published 2010).
pIC50: −log10 of the molar value.

Tests used:
[1] = tested on: CaCo2 colon cancer cell line; assay: Monolayer growth inhibition assay (MTT/MTS); assay type: cell-based
Excerpt: (§1) The MTT is a colorimetric assay to determine the cell proliferation rate. The yellow tetrazolium MTT (3-(4, 5-dimethylthiazolyl-2)-2, 5-diphenyltetrazolium bromide) is reduced, by metabolically active cells, in part by the action of dehydrogenase enzymes, to generate reducing equivalents such as NADH and NADPH. The resulting intracellular purple formazan can be solubilized and quantified by spectrophotometric means. The signals produced is directly proportional to the cell numbers. Describing the MTT assay in detail, experiments were done using six-point or 9 point drug titrations in multi-well tissue culture dishes, with outer rows left empty. Cells were suspended in complete media at densities of between 10^3 and 10^4 cell/ml, respectively, and added per well. The appropriate medium (200 μl) was then added. Twenty-four hours later, 10 μl of MTS solution, were added to one plates to determine the activity at the time of compound addition (T0). This plate was incubated at 37° for 4 hours and the optical density was measured on a Molecular Devices Thermomax at 490 nm using the Softmax program. The T0 plate served as a reference for initial activity at the beginning of the experiment.
(§2) Compound addition began 24 hours after seeding, the same time as the T0 determination. Serial dilutions at 4-fold 2-fold, 1-fold, 0.5-fold, 0.25-fold and 0.125-fold of previously determined IC50 values of each compound were made in a 96-deep well plate with the highest concentrations on the edge of the plate. Each of the six dilutions were added in triplicate and complete medium was added to the empty outer rows, without cells. The compounds were added to the plates singly or in combination with Compound III (LBH589). The plates were incubated at 37° C. for 72 hours from seeding. The MTS solution was added (as for the T0 plate) and read four hours later. In order to analyze the data, the average value of media alone (background) was subtracted from each experimental well and the triplicate values were averaged for each compound dilution. The following formulas were used to calculate percent growth.
(§3) If X>T0, % Growth=100×(X−T0)/(GC−T0))
(§4) If X<T0, % Growth=100×(X−T0)/T0)
(§5) T0=average value of T0 minus background
(§6) GC=average value of untreated cells (in triplicate) minus background X=average value, of compound treated cells (in triplicate) minus background
(§7) IC50 the concentration of LBH589 required to inhibit cell growth by 50% and LD50s the concentration required to reduce cell number (kill cells) to 50% the original innoculum were determined. The “% Growth” was plotted against compound concentration and used to calculate IC50s and LD50s, employing the user-defined spline function in Microsoft Excel.
(§8) Colon cancer cell lines were treated with DMSO vehicle control or varying concentrations of LBH589 for 3 days. Cell proliferation was measured on the day of cell plating and on the third day post-treatment. IC50 and LD50 values were calculated as described above.

[2] = tested on: Colo205 colon cancer cell line; assay: Monolayer growth inhibition assay (MTT/MTS); assay type: cell-based
Excerpt: as §1, §2, §3, §4, §5, §6, §7, §8

[3] = tested on: Colo320 colon cancer cell line; assay: Monolayer growth inhibition assay (MTT/MTS); assay type: cell-based
Excerpt: as §1, §2, §3, §4, §5, §6, §7, §8

[4] = tested on: Colo320DM colon cancer cell line; assay: Monolayer growth inhibition assay (MTT/MTS); assay type: cell-based
Excerpt: as §1, §2, §3, §4, §5, §6, §7, §8

[5] = tested on: Colo741 colon cancer cell line; assay: Monolayer growth inhibition assay (MTT/MTS); assay type: cell-based
Excerpt: as §1, §2, §3, §4, §5, §6, §7, §8

[6] = tested on: DLD-1 colon cancer cell line; assay: Monolayer growth inhibition assay (MTT/MTS); assay type: cell-based
Excerpt: as §1, §2, §3, §4, §5, §6, §7, §8

[7] = tested on: HCC2998 colon cancer cell line; assay: Monolayer growth inhibition assay (MTT/MTS); assay type: cell-based
Excerpt: as §1, §2, §3, §4, §5, §6, §7, §8

[8] = tested on: LOVO colon cancer cell line; assay: Monolayer growth inhibition assay (MTT/MTS); assay type: cell-based
Excerpt: as §1, §2, §3, §4, §5, §6, §7, §8

[9] = tested on: SNU-C1 colon cancer cell line; assay: Monolayer growth inhibition assay (MTT/MTS); assay type: cell-based
Excerpt: as §1, §2, §3, §4, §5, §6, §7, §8

[10] = tested on: SW48 colon cancer cell line; assay: Monolayer growth inhibition assay (MTT/MTS); assay type: cell-based
Excerpt: as §1, §2, §3, §4, §5, §6, §7, §8

[11] = tested on: SW480 colon cancer cell line; assay: Monolayer growth inhibition assay (MTT/MTS); assay type: cell-based
Excerpt: as §1, §2, §3, §4, §5, §6, §7, §8

[12] = tested on: SW620 colon cancer cell line; assay: Monolayer growth inhibition assay (MTT/MTS); assay type: cell-based
Excerpt: as §1, §2, §3, §4, §5, §6, §7, §8

[13] = tested on: WiDr colon cancer cell line; assay: Monolayer growth inhibition assay (MTT/MTS); assay type: cell-based
Excerpt: as §1, §2, §3, §4, §5, §6, §7, §8

[14] = tested on: Colo205 colon cancer xenograft; assay: Colo205 colon cancer xenograft model, tumor growth inhibition and delay; assay type: in vivo, Female athymic nude mice; conditions: LBH589 30 mg/kg iv Mon/Wed/Fri for 3 weeks, 5-FU 75 mg/kg ip once a week for 3 weeks, or both
Description: Female athymic nude mice-were implanted subcutaneously with Col6205 colon cancer cells. When tumors reached a medan tumor volume of 220 mm3, mice were randomized into groups of 10 mice. Mice were treated with LBH589 at 30 mg/kg intravenously on Monday, Wednesday, Friday per week for 3 weeks, 75 mg/kg of 5-Fluorouracil intraperitoneally once a week for 3 weeks, or combination of the two agents. For tumor growth inhibition (FIG. 2A), compound activity was measured as the percent change in tumor volume of treated animals over control animals (% T/C). The percentage of regression was determined as the percent change in the final tumor volume at the end of the study over the starting tumor volume. For tumor growth delay (FIG. 2B), compound activity was measured as the change in median calculated time to the study end point (TTE), which was predefined as tumor volume of 1000 mm^3.

[15] = tested on: 19 pancreatic cancer cell lines; assay: Cell proliferation assays, panel of 19 pancreatic cancer cell lines, 6 days; assay type: cell-based; conditions: 6 days treatment
Description: A panel of 19 pancreatic cancer cell lines was independently assessed in cell proliferation assays. Cells were treated with DMSO vehicle control or varying concentrations of LBH589 for 6 days.

[16] = 3 days, concentration reducing cell number to 50% of original inoculum
[17] = Homo sapiens, 72 h, 3 days treatment

`Cc1[nH]c2ccccc2c1CCNCc1ccc(/C=C/C(=O)NO)cc1` [LBH589, N-hydroxy-3-[4-[[[2-(2-methyl-1H-indol-3-yl)ethyl]-amino]methyl]phenyl]-2E-2-propenamide] was tested, and the “LD50” value ([1]; CaCo2, 3 days, concentration reducing cell number to 50% of original inoculum) was 45.55 nM, the pIC50 ([1]; Homo sapiens, Caco-2, 72 h, CaCo2, 3 days treatment) was 7.86 and the “LD50” value ([2]; Colo205, 3 days, concentration reducing cell number to 50% of original inoculum) was 33.52 nM. For the same molecule, the pIC50 ([2]; Homo sapiens, COLO 205, 72 h, Colo205, 3 days treatment) was 7.83, the “LD50” value ([3]; Colo320, 3 days, concentration reducing cell number to 50% of original inoculum) was 82.90 nM and the pIC50 ([3]; Homo sapiens, COLO 320, 72 h, Colo320, 3 days treatment) was 8.19. The “LD50” value [4, 16] was 1103.37 nM, the pIC50 ([4]; Homo sapiens, COLO 320DM, 72 h, 3 days treatment) was 7.53 and the “LD50” value ([5]; Colo741, 3 days, concentration reducing cell number to 50% of original inoculum) was 33.73 nM. For the same molecule, the pIC50 ([5]; Homo sapiens, COLO-741, 72 h, Colo741, 3 days treatment) was 8.04, the “LD50” value ([6]; DLD-1, 3 days, concentration reducing cell number to 50% of original inoculum) was 296.27 nM and the pIC50 ([6]; Homo sapiens, 72 h, DLD-1, 3 days treatment) was 7.21. For the same molecule, the “LD50” value ([7]; HCC2998, 3 days, concentration reducing cell number to 50% of original inoculum) was 154.87 nM, the pIC50 ([7]; Homo sapiens, HCC 2998, 72 h, HCC2998, 3 days treatment) was 7.53 and the “LD50” value [8, 16] was 52.01 nM. The pIC50 [8, 17] was 8.36, the pIC50 ([9]; Homo sapiens, 72 h, SNU-C1, 3 days treatment) was 8.35 and the “LD50” value ([9]; SNU-C1, 3 days, concentration reducing cell number to 50% of original inoculum) was 26.07 nM. The pIC50 ([10]; Homo sapiens, 72 h, SW48, 3 days treatment) was 8.89, the “LD50” value ([10]; SW48, 3 days, concentration reducing cell number to 50% of original inoculum) was 13.09 nM and the pIC50 ([11]; Homo sapiens, 72 h, SW480, 3 days treatment) was 8.83. For the same molecule, the “LD50” value ([11]; SW480, 3 days, concentration reducing cell number to 50% of original inoculum) was 6.90 nM, the pIC50 ([12]; Homo sapiens, SW-620, 72 h, SW620, 3 days treatment) was 9.10 and the “LD50” value ([12]; SW620, 3 days, concentration reducing cell number to 50% of original inoculum) was 1.70 nM. The “LD50” value [13, 16] was 41.86 nM, the pIC50 [13, 17] was 8.36 and the “tumor growth inhibition (TGI) and tumor growth delay (TGD)” value [14] was “led to tumor growth inhibition (TGI) and tumor growth delay (TGD)”. For the same molecule, the “Median TTE (time to study end point, tumor volume of 1000 mm^3)” value ([14]; vehicle 39.5 days) was 32.9 days, the LD50 ([15]; 18 of the 19 pancreatic cancer cell lines) was less than 1 µM and the IC50 values ([15]; all 19 pancreatic cancer cell lines) was “low nanomolar”.
